Measured values from PubChem BioAssay AID2060329 (Molecular Pharmacology Branch, DTP, NCI, 2025).
“And” between values parts separate entries of the source, which are not always exact repeats. Equal values may be shown once.

Tested on: MCF7 multi-cell spheroids with HUVEC/MSC, viability
Assay: Anticancer human tumor MCF7 cell line growth inhibition [IpAb];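 also: spheroids exposed to agents for seven days before readout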
Settings: for viability, T/C: stronger effect = lower value
Outline: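 Spheroids of 60% malignant cells, 25% HUVEC and 15% MSC were exposed to targeted agents combined with ipatasertib or abemaciclib. Doses started at or near clinical Cmax (10 microM when unknown) and fell in half-log steps.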

[1] = curve of first compound, second compound 0.01 µM
[2] = curve of first compound, second compound 0.0316 µM
[3] = curve of first compound, second compound 0.1 µM
[4] = curve of first compound, second compound 0.316 µM
[5] = curve of first compound, second compound 1 µM
[6] = second compound 0.1 µM, first compound 0.0316 µM
[7] = second compound 0.1 µM, first compound 0.1 µM
[8] = second compound 0.1 µM, first compound 0.316 µM
[9] = second compound 0.1 µM, first compound 1 µM
[10] = second compound 0.316 µM, first compound 0.0316 µM
[11] = second compound 0.316 µM, first compound 0.1 µM
[12] = second compound 0.316 µM, first compound 0.316 µM
[13] = second compound 0.316 µM, first compound 1 µM
[14] = second compound 1 µM, first compound 0.0316 µM
[15] = second compound 1 µM, first compound 0.1 µM
[16] = second compound 1 µM, first compound 0.316 µM
[17] = second compound 1 µM, first compound 1 µM

Compound `Cn1cnc2c(F)c(Nc3ccc(Br)cc3Cl)c(C(=O)NOCCO)cc21` + CCN1CCN(Cc2ccc(Nc3ncc(F)c(-c4cc(F)c5nc(C)n(C(C)C)c5c4)n3)nc2)CC1 has an IC50 [1] of over 3000 nM, an IC50 [2] of over 3000 nM and an IC50 [3] of over 3000 nM. It also gave an IC50 [4] of over 3000 nM, an IC50 [5] of over 3000 nM and a viability, T/C (second compound 0.01 µM, first compound 0.00949 µM) of 104%. For the same compound, the viability, T/C (second compound 0.01 µM, first compound 0.03 µM) was 121%, the viability, T/C (second compound 0.01 µM, first compound 0.0949 µM) was 103% and the viability, T/C (second compound 0.01 µM, first compound 0.3 µM) was 113%. The viability, T/C (second compound 0.01 µM, first compound 0.949 µM) was 125%, the viability, T/C (second compound 0.01 µM, first compound 3 µM) was 100% and the viability, T/C (second compound 0.0316 µM, first compound 0.00949 µM) was 94.4%. It also gave a viability, T/C (second compound 0.0316 µM, first compound 0.03 µM) of 113%, a viability, T/C (second compound 0.0316 µM, first compound 0.0949 µM) of 109% and a viability, T/C (second compound 0.0316 µM, first compound 0.3 µM) of 116%. For the same compound, the viability, T/C (second compound 0.0316 µM, first compound 0.949 µM) was 119%, the viability, T/C (second compound 0.0316 µM, first compound 3 µM) was 99% and the viability, T/C (second compound 0.1 µM, first compound 0.00949 µM) was 130%. It also gave a viability, T/C (second compound 0.1 µM, first compound 0.03 µM) of 120%, a viability, T/C (second compound 0.1 µM, first compound 0.0949 µM) of 117% and a viability, T/C (second compound 0.1 µM, first compound 0.3 µM) of 127%. The viability, T/C (second compound 0.1 µM, first compound 0.949 µM) was 127%, the viability, T/C (second compound 0.1 µM, first compound 3 µM) was 113% and the viability, T/C (second compound 0.316 µM, first compound 0.00949 µM) was 119%. For the same compound, the viability, T/C (second compound 0.316 µM, first compound 0.03 µM) was 132%, the viability, T/C (second compound 0.316 µM, first compound 0.0949 µM) was 132% and the viability, T/C (second compound 0.316 µM, first compound 0.3 µM) was 126%. The viability, T/C (second compound 0.316 µM, first compound 0.949 µM) was 120%, the viability, T/C (second compound 0.316 µM, first compound 3 µM) was 108% and the viability, T/C (second compound 1 µM, first compound 0.00949 µM) was 107%. For the same compound, the viability, T/C (second compound 1 µM, first compound 0.03 µM) was 110%, the viability, T/C (second compound 1 µM, first compound 0.0949 µM) was 107% and the viability, T/C (second compound 1 µM, first compound 0.3 µM) was 95.5%. The viability, T/C (second compound 1 µM, first compound 0.949 µM) was 88.5% and the viability, T/C (second compound 1 µM, first compound 3 µM) was 88.5%.
`CC(C)n1nc(-c2ccc3oc(N)nc3c2)c2c(N)ncnc21` was tested, and the viability, T/C (compound 0.000316 µM) was 98.9% and 88.3%, the viability, T/C (compound 0.001 µM) was 86.4% and 81.6% and the viability, T/C (compound 0.00316 µM) was 80.8% and 82.8%. For the same compound, the viability, T/C (compound 0.01 µM) was 73.5% and 65.5%, the viability, T/C (compound 0.0316 µM) was 42.5% and 29.7% and the viability, T/C (compound 0.1 µM) was 25% and 22.1%. For the same compound, the IC50 (curve of compound) was 25.9 nM and 16.4 nM.
`COc1c(OCCCN2CCOCC2)ccc2c3n(c(=NC(=O)c4cnc(N)nc4)nc12)CCN3` + CCN1CCN(Cc2ccc(Nc3ncc(F)c(-c4cc(F)c5nc(C)n(C(C)C)c5c4)n3)nc2)CC1 gave an IC50 [1] of 42.3 nM, an IC50 [2] of 29.8 nM and an IC50 [3] of 29.7 nM. The IC50 [4] was 42 nM, the IC50 [5] was 57.1 nM and the viability, T/C (second compound 0.01 µM, first compound 0.00316 µM) was 101%. It also gave a viability, T/C (second compound 0.01 µM, first compound 0.01 µM) of 79.7%, a viability, T/C (second compound 0.01 µM, first compound 0.0316 µM) of 61.3% and a viability, T/C (second compound 0.01 µM, first compound 0.1 µM) of 27.7%. For the same compound, the viability, T/C (second compound 0.01 µM, first compound 0.316 µM) was 9.2%, the viability, T/C (second compound 0.01 µM, first compound 1 µM) was 11.6% and the viability, T/C (second compound 0.0316 µM, first compound 0.00316 µM) was 91.2%. The viability, T/C (second compound 0.0316 µM, first compound 0.01 µM) was 82.2%, the viability, T/C (second compound 0.0316 µM, first compound 0.0316 µM) was 46.5% and the viability, T/C (second compound 0.0316 µM, first compound 0.1 µM) was 22.8%. The viability, T/C (second compound 0.0316 µM, first compound 0.316 µM) was 7.69%, the viability, T/C (second compound 0.0316 µM, first compound 1 µM) was 11.1% and the viability, T/C (second compound 0.1 µM, first compound 0.00316 µM) was 99.2%. It also gave a viability, T/C (second compound 0.1 µM, first compound 0.01 µM) of 78.8%, a viability, T/C [6] of 48.9% and a viability, T/C [7] of 23.4%. For the same compound, the viability, T/C [8] was 8.37%, the viability, T/C [9] was 9.47% and the viability, T/C (second compound 0.316 µM, first compound 0.00316 µM) was 93.1%. It also gave a viability, T/C (second compound 0.316 µM, first compound 0.01 µM) of 73.5%, a viability, T/C [10] of 56.5% and a viability, T/C [11] of 36.5%. The viability, T/C [12] was 17.9%, the viability, T/C [13] was 15% and the viability, T/C (second compound 1 µM, first compound 0.00316 µM) was 94%. It also gave a viability, T/C (second compound 1 µM, first compound 0.01 µM) of 66.7%, a viability, T/C [14] of 59% and a viability, T/C [15] of 41%. It also gave a viability, T/C [16] of 36.6% and a viability, T/C [17] of 18%.
For `CCCS(=O)(=O)Nc1ccc(F)c(C(=O)c2c[nH]c3ncc(-c4ccc(Cl)cc4)cc23)c1F` + CC(C)NCC(C(=O)N1CCN(c2ncnc3c2C(C)CC3O)CC1)c1ccc(Cl)cc1, the IC50 [3] was over 10000 nM, the IC50 [4] was over 10000 nM and the IC50 [5] was over 10000 nM. For the same compound, the IC50 (curve of first compound, second compound 3.16 µM) was over 10000 nM, the IC50 (curve of first compound, second compound 10 µM) was 31.6 nM and the viability, T/C [6] was 97%. For the same compound, the viability, T/C [7] was 90%, the viability, T/C [8] was 90.3% and the viability, T/C [9] was 98.8%. It also gave a viability, T/C (second compound 0.1 µM, first compound 3.16 µM) of 98.5%, a viability, T/C (second compound 0.1 µM, first compound 10 µM) of 101% and a viability, T/C [10] of 85.4%. It also gave a viability, T/C [11] of 76.6%, a viability, T/C [12] of 86.3% and a viability, T/C [13] of 76.5%. The viability, T/C (second compound 0.316 µM, first compound 3.16 µM) was 80.2%, the viability, T/C (second compound 0.316 µM, first compound 10 µM) was 85.2% and the viability, T/C [14] was 73.2%. It also gave a viability, T/C [15] of 70.3%, a viability, T/C [16] of 69.1% and a viability, T/C [17] of 64.5%. The viability, T/C (second compound 1 µM, first compound 3.16 µM) was 71.3%, the viability, T/C (second compound 1 µM, first compound 10 µM) was 76.6% and the viability, T/C (second compound 3.16 µM, first compound 0.0316 µM) was 59.4%. For the same compound, the viability, T/C (second compound 3.16 µM, first compound 0.1 µM) was 60.1%, the viability, T/C (second compound 3.16 µM, first compound 0.316 µM) was 53.5% and the viability, T/C (second compound 3.16 µM, first compound 1 µM) was 52.7%. The viability, T/C (second compound 3.16 µM, first compound 3.16 µM) was 79.8%, the viability, T/C (second compound 3.16 µM, first compound 10 µM) was 60% and the viability, T/C (second compound 10 µM, first compound 0.0316 µM) was 43.4%. The viability, T/C (second compound 10 µM, first compound 0.1 µM) was 42.7%, the viability, T/C (second compound 10 µM, first compound 0.316 µM) was 44.1% and the viability, T/C (second compound 10 µM, first compound 1 µM) was 52.4%. It also gave a viability, T/C (second compound 10 µM, first compound 3.16 µM) of 53.7% and a viability, T/C (second compound 10 µM, first compound 10 µM) of 9.37%.
In the case of `COc1c(OCCCN2CCOCC2)ccc2c3n(c(=NC(=O)c4cnc(N)nc4)nc12)CCN3`, the viability, T/C (compound 0.00316 µM) is reported as 89.3% and 87.5%, the viability, T/C (compound 0.01 µM) is reported as 80.2% and 84.9% and the viability, T/C (compound 0.0316 µM) is reported as 64.7% and 59.9%. The viability, T/C (compound 0.1 µM) was 32% and 36.9%, the viability, T/C (compound 0.316 µM) was 14% and 10.5% and the viability, T/C (compound 1 µM) was 14.2% and 13.4%. The IC50 (curve of compound) was 51.9 nM.
For `Cn1nccc1Nc1nccc(-c2ccn(C(CO)c3ccc(Cl)c(F)c3)c(=O)c2)n1` (stereo not drawn), the viability, T/C (compound 0.0316 µM) was 96.3% and 104%, the viability, T/C (compound 0.1 µM) was 96.2% and 111% and the viability, T/C (compound 0.316 µM) was 116% and 119%. The viability, T/C (compound 1 µM) was 129% and 118%, the viability, T/C (compound 3.16 µM) was 128% and 143% and the viability, T/C (compound 10 µM) was 88.5% and 102%. The IC50 (curve of compound) was over 10000 nM.
For `Cn1ncnc1[C@H]1c2n[nH]c(=O)c3cc(F)cc(c23)N[C@@H]1c1ccc(F)cc1`, the viability, T/C (compound 0.000316 µM) was 139% and 91.4%, the viability, T/C (compound 0.001 µM) was 97.3% and 97.9% and the viability, T/C (compound 0.00316 µM) was 92.7% and 90%. For the same compound, the viability, T/C (compound 0.01 µM) was 90.3% and 100%, the viability, T/C (compound 0.0316 µM) was 94% and 102% and the viability, T/C (compound 0.1 µM) was 85.9% and 102%. The IC50 (curve of compound) was over 100 nM.
